From patent publication US11319337B2, “3-desoxy derivative and pharmaceutical compositions thereof” (Intercept Pharmaceuticals, Inc., priority 2016, dated 2022)
In brackets after ≈: the same amount, converted by molar mass. Structures can show the parent of a compound that is named as a salt. Where two headings read alike, the source gives them in different places.

Columns and labels:
Human FXR = target: T1, Human FXR (Homo sapiens, UniProt Q96RI1); assay: AlphaScreen assay, FXR-LBD-GST / SRC-1 LXXLL peptide recruitment; assay type: biochemical
T1 construct: Human FXR-LBD-GST was incubated
T1 sequence (Q96RI1 262-486 limits assumed): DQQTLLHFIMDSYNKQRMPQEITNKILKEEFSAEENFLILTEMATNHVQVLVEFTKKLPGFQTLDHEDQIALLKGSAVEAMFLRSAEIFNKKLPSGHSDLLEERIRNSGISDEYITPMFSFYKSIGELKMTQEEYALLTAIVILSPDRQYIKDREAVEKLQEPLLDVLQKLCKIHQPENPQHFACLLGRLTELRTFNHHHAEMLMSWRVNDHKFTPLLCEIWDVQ

Human TGR5 = target: T2, Human TGR5 (Homo sapiens, UniProt Q8TDU6); assay: HTR-FRET intracellular cAMP assay in NCI-H716 cells; assay type: cell-based
T2 construct: Human enteroendocrine NCI-H716 cells constitutively expressing TGR5; endogenous in cells; host or cells: NCI-H716
T2 sequence (Q8TDU6 1-330): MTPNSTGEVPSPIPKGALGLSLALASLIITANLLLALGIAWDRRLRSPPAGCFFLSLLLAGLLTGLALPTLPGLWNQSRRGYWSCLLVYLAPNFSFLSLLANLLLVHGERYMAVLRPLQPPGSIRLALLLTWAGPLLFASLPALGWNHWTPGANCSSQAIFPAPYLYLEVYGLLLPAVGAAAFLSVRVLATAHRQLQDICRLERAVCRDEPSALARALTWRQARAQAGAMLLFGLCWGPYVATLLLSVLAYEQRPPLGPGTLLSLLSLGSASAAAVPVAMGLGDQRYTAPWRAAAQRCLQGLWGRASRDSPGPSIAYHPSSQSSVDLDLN

mFXR = mFXR (Mus musculus, UniProt Q60641); assay: FXR cross species activity, mFXR; assay type: biochemical; settings: Table 2, cross species
rFXR = rFXR (Rattus norvegicus, UniProt Q62735); assay: FXR cross species activity, rFXR; assay type: biochemical; settings: Table 2, cross species
dFXR = target: T3, dFXR (Canis lupus familiaris, UniProt A0A8I3N2S7); assay: FXR cross species activity, dFXR; assay type: biochemical, dog; settings: Table 2, cross species
T3 construct: printed for the human protein only; fused on or other part: GST tag, printed only for the human construct

mTGR5 = mTGR5 (Mus musculus, UniProt Q80SS6); assay: TGR5 cross species activity, mTGR5; assay type: cell-based; settings: Table 3, cross species
rTGR5 = rTGR5 (Rattus norvegicus, UniProt Q80T02); assay: TGR5 cross species activity, rTGR5; assay type: cell-based; settings: Table 3, cross species
dTGR5 = dTGR5 (Canis lupus familiaris, UniProt A0A8I3PZA6); assay: TGR5 cross species activity, dTGR5; assay type: cell-based, dog; settings: Table 3, cross species
LXRα = LXRα (Homo sapiens, UniProt Q13133); assay: AlphaScreen nuclear receptor profile (agonist mode), LXRα; assay type: biochemical
CAR = CAR (Homo sapiens, UniProt Q14994); assay: AlphaScreen nuclear receptor profile (agonist mode), CAR; assay type: biochemical
LXRβ = LXRβ (Homo sapiens, UniProt P55055); assay: AlphaScreen nuclear receptor profile (agonist mode), LXRβ; assay type: biochemical
PPARα = PPARα (Homo sapiens, UniProt Q07869); assay: AlphaScreen nuclear receptor profile (agonist mode), PPARα; assay type: biochemical
PPARδ = PPARδ (Homo sapiens, UniProt Q03181); assay: AlphaScreen nuclear receptor profile (agonist mode), PPARδ; assay type: biochemical
Text: Using the AlphaScreen assay, the selectivity of Compound 1 against the following nuclear receptors involved in the metabolic pathways can be evaluated: LXRα, LXRβ, PXR, CAR, […], PPARδ, PPARγ, RAR, RARα, VDR, TR, PR, RXRα, GR, and ER.

PPARγ = PPARγ (Homo sapiens, UniProt P37231); assay: AlphaScreen nuclear receptor profile (agonist mode), PPARγ; assay type: biochemical
PXR = PXR (Homo sapiens, UniProt O75469); assay: AlphaScreen nuclear receptor profile (agonist mode), PXR; assay type: biochemical
RAR = assay: AlphaScreen nuclear receptor profile (agonist mode), RAR; assay type: biochemical
RXRα = RXRα (Homo sapiens, UniProt P19793); assay: AlphaScreen nuclear receptor profile (agonist mode), RXRα; assay type: biochemical
VDR = VDR (Homo sapiens, UniProt P11473); assay: AlphaScreen nuclear receptor profile (agonist mode), VDR; assay type: biochemical
ER = assay: AlphaScreen nuclear receptor profile (agonist mode), ER; assay type: biochemical
GR = GR (Homo sapiens, UniProt P04150); assay: AlphaScreen nuclear receptor profile (agonist mode), GR; assay type: biochemical
PR = PR (Homo sapiens, UniProt P06401); assay: AlphaScreen nuclear receptor profile (agonist mode), PR; assay type: biochemical
TR = assay: AlphaScreen nuclear receptor profile (agonist mode), TR; assay type: biochemical
HepG2 cells [1] = assay: In vitro cytotoxicity, LDH release; assay type: cell-based; settings: Homo sapiens
HepG2 cells [2] = assay: In vitro cytotoxicity, cell viability by ATP content; assay type: cell-based; settings: Homo sapiens, HepG2, read-out: ATP Content EC50
CYP1A2 = target: T4, CYP1A2 (Homo sapiens, UniProt P05177); assay: CYP450 screening, fluorescent signal, recombinant baculosomes, CYP1A2; assay type: in vitro ADME
T4 construct: purchased Invitrogen

CYP3A4 = target: T5, CYP3A4 (Homo sapiens, UniProt P08684); assay: CYP450 screening, fluorescent signal, recombinant baculosomes, CYP3A4; assay type: in vitro ADME
T5 construct: purchased Invitrogen

CYP2C9 = target: T6, CYP2C9 (Homo sapiens, UniProt P11712); assay: CYP450 screening, fluorescent signal, recombinant baculosomes, CYP2C9; assay type: in vitro ADME
T6 construct: purchased Invitrogen

CYP2C19 = target: T7, CYP2C19 (Homo sapiens, UniProt P33261); assay: CYP450 screening, fluorescent signal, recombinant baculosomes, CYP2C19; assay type: in vitro ADME
T7 construct: purchased Invitrogen; host or cells: baculosomes (insect-cell microsomes)

CYP2D6 = target: T8, CYP2D6 (Homo sapiens, UniProt P10635); assay: CYP450 screening, fluorescent signal, recombinant baculosomes, CYP2D6; assay type: in vitro ADME
T8 construct: purchased Invitrogen; host or cells: baculosomes (insect-cell microsomes)

CYP2E1 = target: T9, CYP2E1 (Homo sapiens, UniProt P05181); assay: CYP450 screening, fluorescent signal, recombinant baculosomes, CYP2E1; assay type: in vitro ADME
T9 construct: purchased Invitrogen; host or cells: baculosomes (insect-cell microsomes)
Text: To evaluate the potential of Compound 1 for drug-drug interactions, the six main CYP450 isoforms (CYP1A2, CYP2C9, CYP2C19, CYP2D6, CYP2E1, CYP3A4) are investigated (Obach, et al., J Pharmacol. Exp. Ther, 2006, 316, 336-348).

Pgp = target: T10, Pgp (Homo sapiens, UniProt P08183); assay: Pgp-Glo Assay, Pgp ATPase activity; assay type: in vitro ADME; settings: read-out: Pgp Substrate EC50
T10 construct: purchased V3591 and V3601
Text: The impact of Compound 1 on Pgp ATPase activity was examined in Pgp-GloTM Assay (Technical Bulletin; Pgp-GloTM Assay Systems Instructions for Use of Products […] and […]; Revised November 2015) according to the manufacturer's standard protocol.

[3] = Critical micellar concentration; assay type: physicochemical; settings: in […] NaCl water solution
[4] = 1-octanol-water partition coefficient (LogPA-); assay type: physicochemical; settings: bile acids as ionized species
Procedure: (§1) Physiochemical properties of Compound 1 such as water solubility, critical micellar concentration, surface tension, and LogPA were determined using methods known in the art.

hERG potassium channel = hERG potassium channel (Homo sapiens, UniProt Q12809); assay: biochemical
Water solubility = assay type: physicochemical; settings: BA as protonated species, hs = highly soluble, read-out: Ws (water solubility)
Procedure: as §1

Surface tension at CMC = assay type: physicochemical; settings: in […] NaCl water solution; in mN/m (unit assumed)
Procedure: as §1

## CC[C@H]1[C@@H](O)[C@@H]2[C@H]([C@@H](O)C[C@]3(C)[C@@H]([C@H](C)CCC(=O)O)CC[C@@H]23)[C@@]2(C)CCCC[C@@H]12 [Compound 1, 7α,11β-dihydroxy-6α-ethyl-5β-cholan-24-oic acid]
Human FXR
  FXR activation, in words: potent and selective activator
Human FXR; Table 1, Human FXR-LBD-GST with biotinylated LXXLL SRC-1 peptide, quantity not named in head (EC50 per Table 2)
  EC50: 0.14 ± 0.04 µM
Human FXR; listed as compound of this invention
  FXR activation, in words: potent FXR agonists
Human TGR5
  selectivity for FXR over TGR5, in words: high selectivity for FXR over TGR5
Human TGR5; Table 1, intracellular cAMP, NCI-H716 cells, quantity not named in head (EC50 per Table 3), read-out: HTR-FRET (cAMP) Human TGR5 (NCI-H716 cells)
  EC50: > 200 µM
Human TGR5; Table 3, cross species, read-out: hTGR5 EC50
  EC50: > 200 µM
mFXR
  EC50: 0.6 ± 0.02 µM
rFXR
  EC50: 0.49 ± 0.01 µM
dFXR
  EC50: 1.65 ± 0.05 µM
mTGR5
  EC50: > 200 µM
rTGR5
  EC50: > 200 µM
dTGR5
  EC50: > 200 µM
LXRα
  EC50: > 300 µM
CAR
  EC50: > 300 µM
LXRβ
  EC50: > 300 µM
PPARα
  EC50: > 300 µM
PPARδ
  EC50: > 300 µM
PPARγ
  EC50: > 300 µM
PXR
  EC50: > 300 µM
RAR
  EC50: > 300 µM
RXRα
  EC50: > 300 µM
VDR
  EC50: > 300 µM
ER
  EC50: > 300 µM
GR
  EC50: > 300 µM
PR
  EC50: > 300 µM
TR
  EC50: > 300 µM
HepG2 cells [1]
  EC50: > 300 µM
HepG2 cells [2]
  EC50: > 300 µM
CYP1A2
  IC50: > 10 µM
CYP3A4; Blue Substrate, read-out: CYP3A4 (Blue Substrate) IC50
  IC50: > 10 µM
CYP3A4; Green Substrate, read-out: CYP3A4 (Green Substrate) IC50
  IC50: > 10 µM
CYP2C9
  IC50: > 10 µM
CYP2C19
  IC50: > 10 µM
CYP2D6
  IC50: > 10 µM
CYP2E1
  IC50: > 10 µM
Pgp
  EC50: > 300 µM
[3]
  CMC (Critical Micellar Concentration): 2.0 mM
[4]
  LogPA- (1-octanol-water partition coefficient): 1.8
hERG potassium channel
  IC50: > 100 µM

## CC[C@H]1[C@@H](O)[C@@H]2[C@H](CC[C@]3(C)[C@@H]([C@H](C)CCC(=O)O)CC[C@@H]23)[C@@]2(C)CC[C@@H](O)C[C@@H]12 [Compound A, 6α-ethyl-3α,7α-dihydroxy-5β-cholan-24-oic acid]
Water solubility
  solubility: 9 mM (≈ 3.79 mg/mL)
[3]
  CMC (Critical Micellar Concentration): 2.9 mM
Surface tension at CMC
  STCMC (Surface Tension at CMC): 43.2-48.8
[4]
  LogPA- (1-octanol-water partition coefficient): 2.5

## CCC1C(O)C2C3CCC(C(C)CCOS(=O)(=O)O)C3(C)CCC2C2(C)CCC(O)CC12 (stereo not drawn) [Compound B, 6α-ethyl-3α,7α,23-trihydroxy-24-nor-5β-cholan-23-sulfate sodium salt]
[4]
  LogPA- (1-octanol-water partition coefficient): 2.0

## CC[C@H]1[C@@H](O)[C@@H]2[C@H](C[C@H](O)[C@]3(C)[C@@H]([C@H](C)C[C@H](C)C(=O)O)CC[C@@H]23)[C@@]2(C)CC[C@@H](O)C[C@@H]12 [Compound C, 6α-ethyl-23(S)-methyl-3α,7α,12α trihydroxy-5β-cholan-24-oic acid]
Water solubility
  solubility: 99 mM (≈ 44.6 mg/mL)
[3]
  CMC (Critical Micellar Concentration): 2 mM
Surface tension at CMC
  STCMC (Surface Tension at CMC): 50.1
[4]
  LogPA- (1-octanol-water partition coefficient): 1.4

## CC[C@H]1[C@@H](O)C2C3CC[C@H]([C@H](C)C[C@H](C)C(=O)O)[C@@]3(C)CCC2[C@@]2(C)CC[C@@H](O)C[C@@H]12 (stereo partly drawn) [Compound D, 6α-ethyl-23(R)-methyl chenodeoxycholic acid]
Water solubility
  solubility: 15 mM (≈ 6.52 mg/mL)
[4]
  LogPA- (1-octanol-water partition coefficient): 2.9

## CC[C@H]1[C@@H](O)C2C3C[C@H](O)[C@H]([C@H](C)CCC(=O)O)[C@@]3(C)CCC2[C@@]2(C)CC[C@@H](O)C[C@@H]12 (some centres unmarked) [Compound E]
Water solubility
  solubility: 120 mM (≈ 52.4 mg/mL)
[3]
  CMC (Critical Micellar Concentration): 5.9 mM
Surface tension at CMC
  STCMC (Surface Tension at CMC): 52.4
[4]
  LogPA- (1-octanol-water partition coefficient): 1.6

## CC[C@H]1[C@@H](O)C2C3CC[C@H]([C@H](C)CCC(=O)O)[C@@]3(C)C[C@H](O)C2[C@@]2(C)CC[C@@H](O)C[C@@H]12 (stereo partly drawn) [Compound F, 3α,7α,11β-dihydroxy-6α-ethyl-5β-cholan-24-oic acid]
Water solubility
  solubility: 143 to 150 mM (≈ 62.4 to 65.5 mg/mL)
[4]
  LogPA- (1-octanol-water partition coefficient): 0.8
